The text below walks through data of ChEMBL document CHEMBL4028893, “Discovery and Optimization of Potent, Cell-Active Pyrazole-Based Inhibitors of Lactate Dehydrogenase (LDH)” (J Med Chem, 2017).

pEC50, pIC50: −log10 of the molar value. The source made the active and inactive calls. The calls are words filed in the database; no cut-off is given here.

Data set [1] relates to Mus musculus. Kind of data set: Oral bioavailability in CD1 mouse plasma at 50 mg/kg measured over 24 hrs post dose by LC/MS/MS analysis. Format: ADME, organism-based. Particulars: in vivo.
In data set [2] the test system is Liver. Kind of data set: Drug metabolism in mouse liver microsomes assessed as glucuronidated metabolite formation measured over 90 mins in presence of NADPH/UDPGA. Format: ADME, microsome. On the technique in general: Liver microsomes are vesicles of endoplasmic reticulum, rich in cytochrome P450 enzymes.
Data set [3] concerns Mus musculus. Kind of data set: Cmax in CD1 mouse plasma at 50 mg/kg, po measured over 24 hrs post dose by LC/MS/MS analysis. Format: ADME, organism-based. Set-up: dose 50 mg/kg, route oral. Particulars: in vivo.
Data set [4] has as its system Mus musculus. Kind of data set: AUClast in CD1 mouse plasma at 50 mg/kg, po measured over 24 hrs post dose by LC/MS/MS analysis. Format: ADME, organism-based. Set-up: dose 50 mg/kg, time 0 - last, route oral. Particulars: in vivo.
Data set [5] relates to Mus musculus. As to the kind of experiment: Clearance in CD1 mouse plasma at 2 mg/kg, iv measured over 24 hrs post dose by LC/MS/MS analysis. Format: ADME, organism-based. Particulars: in vivo.
A short description of data set [6]: Inhibition of pig heart MDH using malic acid as substrate preincubated for 10 mins followed by substrate addition measured up to 5 mins by resorufin-based fluorescence assay. Also noted: species or system Sus scrofa.
In data set [7] the test system is Mus musculus. As to the kind of experiment: AUClast in CD1 mouse plasma at 2 mg/kg, iv measured over 24 hrs post dose by LC/MS/MS analysis. Also noted: dose 2 mg/kg, time 0 - last, route intravenous. Particulars: in vivo. Format: ADME, organism-based.
The nature of data set [8]: Drug level in human A673 cells by LC-MS/MS analysis. Format: ADME, cell-based.
For data set [9], the target named is Isocitrate dehydrogenase [NADP] cytoplasmic (Homo sapiens, UniProt O75874). Kind of data set: Inhibition of wild type IDH1 (unknown origin) using isocitrate as substrate preincubated for 30 mins followed by substrate addition in presence of NADP+ measured up to 5 mins by resorufin-based fluorescence assay.
Sequence of Isocitrate dehydrogenase [NADP] cytoplasmic (O75874 whole entry): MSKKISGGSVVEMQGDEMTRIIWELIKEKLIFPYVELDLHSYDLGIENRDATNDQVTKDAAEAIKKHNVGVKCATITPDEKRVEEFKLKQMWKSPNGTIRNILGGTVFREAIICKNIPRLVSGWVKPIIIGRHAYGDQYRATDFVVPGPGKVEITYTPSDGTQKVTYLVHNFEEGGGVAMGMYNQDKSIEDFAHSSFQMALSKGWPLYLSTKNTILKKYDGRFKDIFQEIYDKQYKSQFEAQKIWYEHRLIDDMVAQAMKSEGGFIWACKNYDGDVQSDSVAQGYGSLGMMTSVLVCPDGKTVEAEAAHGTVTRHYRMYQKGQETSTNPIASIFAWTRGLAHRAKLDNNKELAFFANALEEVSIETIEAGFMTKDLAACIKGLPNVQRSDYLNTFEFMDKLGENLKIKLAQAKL
In data set [10] the test system is Liver. As to the kind of experiment: Drug metabolism in human liver microsomes assessed as glucuronidated metabolite formation measured over 90 mins in presence of NADPH/UDPGA. Format: ADME, microsome.
A short description of data set [11]: Drug level in human MIAPaCa2 cells by LC-MS/MS analysis. Particulars: mia paca-2. Format: ADME, cell-based.
In data set [12] the test system is Mus musculus. Kind of data set: Volume of distribution at steady state in CD1 mouse plasma at 2 mg/kg, iv measured over 24 hrs post dose by LC/MS/MS analysis. Format: ADME, organism-based. Particulars: in vivo.
In data set [13] the target is T1, L-lactate dehydrogenase A chain (Homo sapiens, UniProt P00338).
The target in data set [14] is T2, L-lactate dehydrogenase (Homo sapiens, UniProt V9HWB9). As to the kind of experiment: Inhibition of LDH in human A673 cells assessed as reduction in lactate production preincubated for 2 hrs measured after 30 mins by high throughput fluorescence assay. Format: cell-based.
Data set [15] addresses T1, L-lactate dehydrogenase A chain. This is another data set of the same source.
Description: (§1) Inhibition of human liver LDHA using sodium pyruvate as substrate after 5 mins in presence of NAPDH and in absence of EDTA by diaphorase/resazurin based fluorescence assay
Data set [16] shares this target. The source holds these as a separate data set.
Description: as §1
Data set [17] shares this target. The source holds these as a separate data set.
Description: Inhibition of human liver LDHA using sodium pyruvate as substrate after 5 mins in presence of NAPDH and EDTA by diaphorase/resazurin based fluorescence assay
Data set [18] addresses T2, L-lactate dehydrogenase. Kind of data set: Inhibition of LDH in human MIAPaCa2 cells assessed as reduction in lactate production preincubated for 2 hrs measured after 30 mins by high throughput fluorescence assay. Format: cell-based.
The subject of data set [19] is MIA PaCa-2. Kind of data set: Cytoxicity against human MIAPaCa2 cells assessed as cell growth inhibition at 20 uM after 48 hrs by CellTiter-Glo assay. Format: functional, cell-based. For orientation: ATP-based viability assays read luminescence as a measure of living cells.

Usually Cmax stands for the maximum level reached in the sampled fluid or tissue. As usually defined, the pIC50 is the IC50 on a negative log10 scale, so that one unit is a factor of ten. As usually defined, the Vdss is the apparent volume that relates the amount in the body to the concentration in plasma or blood. In data set [1], `NS(=O)(=O)c1ccc(Cc2c(-c3cccc(-c4ccccc4)c3)nn(-c3nc(C(=O)O)cs3)c2C2CC2)cc1` registered an F of 49%. In addition, the Drug metabolism entry in data set [2] and in [10] was “Metabolite_Notdetected” each time. The Cmax in [3] was found to be 1200 nM. Moreover, the AUClast came to 3.2 µM·h in data set [4] and 0.26 µM·h in [7]. This molecule gave a CL in data set [5] of 227 L/h/kg. For the same molecule, the pIC50 in [6] is 4.37; in data set [9], 4.47. Besides, the Drug uptake entry in data set [8] and in data set [11] was “Active” each time. The Vdss in [12] amounted to 5.6 L/kg.
For orientation: pEC50 means the negative decadic logarithm of the EC50, by convention in mol/L. Read a high pEC50 as a small EC50. In turn, `O=C(O)c1csc(-n2nc(-c3ccccc3)cc2C(F)(F)F)n1` showed a pEC50 in data set [13] of less than 4.00. For the same molecule, the inhibition result in data set [14] and in data set [18] was “inactive” in each case. Besides, in data set [15], the Efficacy lay in the range of 40 to 60%. Further, the negative logarithm of the IC50 (pIC50) is 4.65 in data set [16] and 4.54 in data set [17].
In the case of `NS(=O)(=O)c1ccc(Cc2c(-c3cccc(-c4ccccc4)c3)nn(-c3nc(C(=O)O)cs3)c2CC2CC2)cc1`, the “growth inhibition (GI)” value in data set [19] was “Active”. Also, the F in [1] is listed as 50%. The Drug metabolism entry in data set [2] and in [10] was “Metabolite_Notdetected” in each case. The molecule also came in with a Cmax in [3] of 1780 nM. The AUClast is 2.5 µM·h in data set [4] and 0.19 µM·h in data set [7]. The same molecule returned a CL in data set [5] of 294 L/h/kg. Further, the Drug uptake result in data set [8] and in [11] was “Active” in each case. In addition, in [9], the negative logarithm of the IC50 (pIC50) is 4.53. For the same molecule, the volume of distribution (Vdss) in [12] stood at 27 L/kg.
